{"source": "patent US20160279069A1", "about": "“MATERIALS AND METHODS FOR SUSTAINED RELEASE OF ACTIVE COMPOUNDS” (The Florida International University Board of Trustees, priority 2015, published 2016)", "key": {"[1]": {"test_system": "HIV-1Ba-L infected primary human astrocytes (HA)", "test": "p24 antigen ELISA in HIV-infected primary human astrocytes (latency breaking and antiviral efficacy)", "assay_type": "cell-based", "details": "tested about 1 to about 10 μM, solution phase", "protocol": "FIG. 11 represents an evaluation of the antiviral efficacy of an exemplary embodiment of the drug delivery system in suppressing p24 antigen levels in HIV-infected human astrocytes. The drug delivery system was added on the second day after HIV infection (HIV-1BaL) in equimolar concentration. Supernatants were evaluated on the third, fifth, and seventh day postinfection for p24 levels and were checked for its efficacy, along with its percentage cell viability, using MTT assay. […] Viral p24 protein in the culture supernatant was measured by enzyme-linked immunosorbent assay. Error bars indicate the standard deviation of triplicate data points and are representative of at least three experiments. Dotted lines represent the percentage cell viability; each point represents treatment period. […] NS=non-significant. MTT=3-(4,5-dimethylthiazol-2-yl)-2,5-diphenyltetrazolium bromide.\nLatency-breaking and antiviral efficacy of the formulation was determined via quantification of p24 antigen in a primary human astrocytes (HA) infection model (Nair, M. et al., Nat Commun. 2013; 4:1707). […] The sustained-release ability of the finally assembled formulation ([MNP+tenofovir]2+vorinostat) was also evaluated over a treatment period of 5 days in the HA model. […]"}, "[2]": {"test_system": "human astrocytes (HAs)", "protocol": "In vitro cytotoxicity was assessed by MTT cell viability assay, using a CellTiter 96 Aqueous one-solution cell proliferation assay kit (catalog G3580; Promega, USA) (Nair, M. et al., Nat Commun. 2013; 4:1707). HAs were seeded in 96-well tissue plates at a density of 5×10^3 cells per well. […] Finally, approximately 100 μL stop solution (about 20% sodium dodecyl sulfate in about 50% dimethyl formamide) was added into each well, and absorbance was recorded at 550 nm by a microplate reader (Synergy HT; BioTek Instruments, Inc.)."}}, "data": [{"smiles": "O=C(CCCCCCC(=O)Nc1ccccc1)NO", "note": "[vorinostat]", "values": [{"measurement": "vorinostat concentration giving maximum p24 value (latency reversal)", "setting": "[1]", "result": 1, "unit": "µM"}, {"measurement": "cytotoxicity of optimized vorinostat dose", "setting": "[2]", "result": "nontoxic"}]}]}
